These compounds were tested against T1, WT TTR tetramer (Homo sapiens, UniProt P02766) (assay: WT TTR tetramer dissociation rate in 6 M urea, Example 1). Conditions: TTR 1.8 μM.
Format: biochemical
Protocol: Tetramer dissociation rates were measured by linking slow quaternary structural changes to the unfolding transition, with a rate of 5×10^5 times that of dissociation (Hammarström et al., Proc. Natl. Acad. Sci. U.S.A. 99, 16427 (2002)). Denaturation-detected dissociation is irreversible because the concentration of urea used (>6.0 M) cannot support refolding.
With “3′,5′-Difluorobiphenyl-3-ol [Compound 8]” the “protection of the tetramer from dissociation in 6 M urea by T·I and T·I2” value (shortened to “protection of the tetramer”) was “did not protect the tetramer substantially from dissociation in urea”. For `O=C(O)c1cccc2oc(-c3c(Cl)cccc3Cl)nc12` [Compound 6], the “protection of the tetramer” value was “prevented tetramer dissociation in 6 M urea”. In the case of `O=C(O)c1cccc2oc(-c3ccccc3)nc12` [Compound 7], the “protection of the tetramer” value is reported as “prevented tetramer dissociation in 6 M urea”.

What follows are compounds tested against T2, TTR in whole blood (Homo sapiens, UniProt P02766) (assay: Binding stoichiometry of OH-PCBs in whole blood, Example 4). Conditions: not given.
T2 construct: Whole blood was drawn from healthy volunteers; from tissue; host or cells: human whole blood from healthy volunteers
Excerpt: Up to two PCBs can bind to the two identical thyroid hormone binding sites in a TTR tetramer. […] Several of the hydroxylated PCBs (e.g., 16 and 22) approach a binding stoichiometry of 2.
With “2′,4′-Difluorobiphenyl-4-carboxylic acid [Compound 12]” the “Equivalents Bound (Blood)” value was 1.47. In the case of “2′,6′-Difluorobiphenyl-3-carboxylic acid [Compound 19]”, the “Equivalents Bound (Blood)” value is reported as 1.55. “2′-Fluorobiphenyl-3-carboxylic acid [Compound 15]” was tested, and the “Equivalents Bound (Blood)” value was 0.56. In the case of `O=C(O)c1cccc(-c2ccc(F)cc2F)c1` [Compound 11, 2′,4′-Difluorobiphenyl-3-carboxylic acid], the “Equivalents Bound (Blood)” value is reported as 1.20. `O=C(O)c1ccc2oc(-c3c(Cl)cccc3Cl)nc2c1` [Compound 13] was tested, and the “Equivalents Bound (Blood)” value was 0.86. `O=C(O)c1ccc2oc(-c3ccccc3)nc2c1` [Compound 14] was tested, and the “Equivalents Bound (Blood)” value was 0.73. For `O=C(O)c1ccc(-c2ccccc2)cc1` [Compound 22, Biphenyl-4-carboxylic acid], the “Equivalents Bound (Blood)” value was 1.69.

Each compound was assayed against WT TTR (Homo sapiens, UniProt P02766) (assay: Transthyretin amyloid fibril formation assay (pH 4.4, 72 h, OD 400 nm), Example 4). Conditions: equimolar inhibitor and TTR concentration (3.6 μM).
Format: biochemical
Protocol: TTR secreted into blood from the liver appears to be the source of systemic TTR amyloid. While it is not yet clear where or how amyloid is formed in humans, the typical denaturant in cells is acid, which is effective in converting nearly all amyloidogenic peptides and proteins into amyloid and/or related aggregates. […] Hydroxylated PCBs and PCB 3 were highly efficacious as TTR fibril inhibitors. At an inhibitor concentration equal to the WT TTR concentration (3.6 μM), only 12–50% of the normal amount of fibril formation was observed after a 72 h incubation period.
The compounds were dissolved in DMSO at a concentration of 720 μM. Five μL of a solution of the compound being evaluated was added to 0.5 mL of a 7.2 μM TTR solution in 10 mM phosphate pH 7.6, 100 mM KCl, 1 mM EDTA buffer, allowing the compound to incubate with TTR for 30 min. 495 μL of […] acetate pH 4.2, 100 mM KCl, 1 mM EDTA was added, to yield final protein and inhibitor concentrations of 3.6 μM each and a pH of 4.4. The mixture was then incubated at 37° C. for 72 h, after which the tubes were vortexed for 3 sec and the optical density was measured at 400 nm. The extent of fibril formation was determined by normalizing each optical density by that of TTR without inhibitor, defined to be 100% fibril formation. Control solutions of each compound in the absence of TTR were also tested and none absorbed appreciably at 400 nm.
“2′-Fluorobiphenyl-3-carboxylic acid [Compound 15]” was tested, and the “efficacy as fibril inhibitor” value was “among the highest observed to date”. For `O=C(O)c1ccc2oc(-c3ccccc3)nc2c1` [Compound 14], the “efficacy as fibril inhibitor” value was “among the highest observed to date”.

Each compound was assayed against T3, TTR in human blood plasma (Homo sapiens, UniProt P02766) (assay: Immunoprecipitation/HPLC binding stoichiometry of PCBs and OH-PCBs in plasma, Example 4). Conditions: OH-PCB 10.8 μM in human blood plasma; post-wash lower limit.
Set-up: from tissue; host or cells: human blood plasma from healthy volunteers
“2′,4′-Difluorobiphenyl-4-carboxylic acid [Compound 12]” was tested, and the “Equivalents Bound (Plasma)” value was 1.23 ± 0.24. For “2′,6′-Difluorobiphenyl-3-carboxylic acid [Compound 19]”, the “Equivalents Bound (Plasma)” value was 1.48 ± 0.16. In the case of “2′-Fluorobiphenyl-3-carboxylic acid [Compound 15]”, the “Equivalents Bound (Plasma)” value is reported as 0.70 ± 0.17. For “2′-Fluorobiphenyl-4-carboxylic acid [Compound 16]”, the “Equivalents Bound (Plasma)” value was 1.86 ± 0.14. “3′,5′-Difluorobiphenyl-3-carboxylic acid [Compound 17]” was tested, and the “Equivalents Bound (Plasma)” value was 1.63 ± 0.05. In the case of `O=C(O)c1cccc(-c2ccc(F)cc2F)c1` [Compound 11, 2′,4′-Difluorobiphenyl-3-carboxylic acid], the “Equivalents Bound (Plasma)” value is reported as 1.12 ± 0.22. For `O=C(O)c1ccc2oc(-c3c(Cl)cccc3Cl)nc2c1` [Compound 13], the “Equivalents Bound (Plasma)” value was 0.84 ± 0.24. For `O=C(O)c1ccc2oc(-c3ccccc3)nc2c1` [Compound 14], the “Equivalents Bound (Plasma)” value was 0.81 ± 0.29. In the case of `O=C(O)c1ccc(-c2ccccc2)cc1` [Compound 22, Biphenyl-4-carboxylic acid], the “Equivalents Bound (Plasma)” value is reported as 1.67 ± 0.40.

Same assay, conditions: PCB 10.8 μM in human blood plasma, TTR ≈5 μM; post-wash lower limit
For “2′,4′-Difluorobiphenyl-3-ol [Compound 2]”, the “Equivalents Bound” value was 0.18 ± 0.03. “3′,5′-Difluorobiphenyl-3-ol [Compound 8]” was tested, and the “Equivalents Bound” value was “No Binding”. In the case of `Oc1ccc(-c2ccc(F)cc2F)cc1` [Compound 3, 2′,4′-Difluorobiphenyl-4-ol], the “Equivalents Bound” value is reported as 1.50 ± 0.42. `O=C(O)c1cccc2oc(-c3cc(Cl)cc(Cl)c3)nc12` [Compound 5] was tested, and the “Equivalents Bound” value was 0.06 ± 0.04. `O=C(O)c1cccc2oc(-c3c(Cl)cccc3Cl)nc12` [Compound 6] was tested, and the “Equivalents Bound” value was 0.19 ± 0.11. With `O=C(O)c1cccc2oc(-c3ccccc3)nc12` [Compound 7] the “Equivalents Bound” value was “No Binding”. With `O=C(O)c1cc(-c2ccc(F)cc2F)ccc1O` [diflunisal, reference compound] the “Equivalents Bound” value was 0.62 ± 0.12.

The compounds below were run against T3, TTR in human blood plasma (assay: not given). Conditions: test compound 10.8 μM, 24 h, 37° C.
Format: binding
Set-up: from tissue; host or cells: human blood plasma from healthy volunteers
Protocol: Human blood plasma (TTR conc. 3.6–5.4 μM) was incubated for 24 h with the test compound (10.8 μM) at 37° C. The TTR and any bound inhibitor were immunoprecipitated using a sepharose-bound polyclonal TTR antibody. The TTR with or without inhibitor bound was liberated from the resin at high pH, and the inhibitor:TTR stoichiometry was ascertained by HPLC analysis (FIG. 8).
In the case of `O=C(O)c1cccc(-c2ccc(F)cc2F)c1` [Compound 11, 2′,4′-Difluorobiphenyl-3-carboxylic acid], the “inhibitor:TTR binding stoichiometry in human blood plasma” value is reported as “displayed the highest binding stoichiometries”. `O=C(O)c1ccc2oc(-c3c(Cl)cccc3Cl)nc2c1` [Compound 13] was tested, and the “inhibitor:TTR binding stoichiometry in human blood plasma” value was “displayed the highest binding stoichiometries”.

What follows are compounds tested against T3, TTR in human blood plasma (assay: Plasma selectivity: antibody capture/HPLC binding stoichiometry, Example 2). Conditions: 10.8 μM inhibitor in human plasma, 37° C., 24 h; post-wash lower limit; maximum 2 per TTR tetramer.
For `Oc1cccc(-c2cc(F)cc(F)c2)c1` [Compound 8, 3′,5′-Difluorobiphenyl-3-ol], the “Plasma Selectivity (equiv bound)” value was 0.18 ± 0.05 equiv bound. `O=C(O)c1cccc(-c2ccc(F)cc2F)c1` [Compound 11, 2′,4′-Difluorobiphenyl-3-carboxylic acid] was tested, and the “Plasma Selectivity (equiv bound)” value was “none observed”. In the case of `O=C(O)c1ccc(-c2ccc(F)cc2F)cc1` [Compound 12, 2′,4′-Difluorobiphenyl-4-carboxylic acid], the “Plasma Selectivity (equiv bound)” value is reported as 0.20 ± 0.05 equiv bound. With `O=C(O)c1cccc(-c2ccccc2F)c1` [Compound 15, 2′-Fluorobiphenyl-3-carboxylic acid] the “Plasma Selectivity (equiv bound)” value was “none observed”. In the case of `O=C(O)c1ccc(-c2ccccc2F)cc1` [Compound 16, 2′-Fluorobiphenyl-4-carboxylic acid], the “Plasma Selectivity (equiv bound)” value is reported as 0.08 ± 0.00 equiv bound. With `O=C(O)c1cccc(-c2cc(F)cc(F)c2)c1` [Compound 17, 3′,5′-Difluorobiphenyl-3-carboxylic acid] the “Plasma Selectivity (equiv bound)” value was 0.23 ± 0.00 equiv bound. In the case of `O=C(O)c1cccc(-c2c(F)cccc2F)c1` [Compound 19, 2′,6′-Difluorobiphenyl-3-carboxylic acid], the “Plasma Selectivity (equiv bound)” value is reported as 0.29 ± 0.12 equiv bound. In the case of `O=C(O)c1ccc(-c2ccccc2)cc1` [Compound 22, Biphenyl-4-carboxylic acid], the “Plasma Selectivity (equiv bound)” value is reported as 0.08 ± 0.01 equiv bound. For `O=C(O)c1cc(-c2ccc(F)cc2)ccc1O` [Compound 23, 4′-Fluoro-4-hydroxybiphenyl-3-carboxylic acid], the “Plasma Selectivity (equiv bound)” value was 0.09 ± 0.00 equiv bound. For `O=C(O)c1cc(-c2ccccc2F)ccc1O` [Compound 24, 2′-Fluoro-4-hydroxybiphenyl-3-carboxylic acid], the “Plasma Selectivity (equiv bound)” value was 0.07 ± 0.02 equiv bound. In the case of `O=C(O)c1cc(-c2cc(F)cc(F)c2)ccc1O` [Compound 25, 3′,5′-Difluoro-4-hydroxybiphenyl-3-carboxylic acid], the “Plasma Selectivity (equiv bound)” value is reported as “none observed”. For `O=C(O)c1cc(-c2ccc(Cl)cc2Cl)ccc1O` [Compound 26, 2′,4′-Dichloro-4-hydroxybiphenyl-3-carboxylic acid], the “Plasma Selectivity (equiv bound)” value was 0.27 ± 0.02 equiv bound. With `O=C(O)c1cc(-c2ccccc2)ccc1O` [Compound 27, 4-Hydroxybiphenyl-3-carboxylic acid] the “Plasma Selectivity (equiv bound)” value was “none observed”. With `O=C(O)c1cccc(-c2cc(F)c(O)c(F)c2)c1` [Compound 28, 3′,5′-Difluoro-4′-hydroxybiphenyl-3-carboxylic acid] the “Plasma Selectivity (equiv bound)” value was “none observed”. For `O=C(O)c1ccc(-c2cc(F)c(O)c(F)c2)cc1` [Compound 29, 3′,5′-Difluoro-4′-hydroxybiphenyl-4-carboxylic acid], the “Plasma Selectivity (equiv bound)” value was 0.07 ± 0.02 equiv bound. `O=C(O)c1cccc(-c2cc(Cl)c(O)c(Cl)c2)c1` [Compound 30, 3′,5′-Dichloro-4′-hydroxybiphenyl-3-carboxylic acid] was tested, and the “Plasma Selectivity (equiv bound)” value was 0.12 ± 0.02 equiv bound. `O=C(O)c1ccc(-c2cc(Cl)c(O)c(Cl)c2)cc1` [Compound 31, 3′,5′-Dichloro-4′-hydroxybiphenyl-4-carboxylic acid] was tested, and the “Plasma Selectivity (equiv bound)” value was 0.26 ± 0.04 equiv bound. In the case of `O=Cc1cccc(-c2cc(Cl)cc(Cl)c2)c1` [Compound 39, 3′,5′-Dichloro-3-formylbiphenyl], the “Plasma Selectivity (equiv bound)” value is reported as 1.30 ± 0.15 equiv bound. For `O=Cc1ccccc1-c1cc(Cl)cc(Cl)c1` [Compound 41, 3′,5′-Dichloro-2-formylbiphenyl], the “Plasma Selectivity (equiv bound)” value was 1.96 ± 0.11 equiv bound. In the case of `OCc1ccc(-c2cc(Cl)cc(Cl)c2)cc1` [Compound 49, 3′,5′-Dichlorobiphenyl-4-yl-methanol], the “Plasma Selectivity (equiv bound)” value is reported as 0.54 ± 0.10 equiv bound. For `OCc1ccccc1-c1cc(Cl)cc(Cl)c1` [Compound 50, 3′,5′-Dichlorobiphenyl-2-yl-methanol], the “Plasma Selectivity (equiv bound)” value was “none observed”.

These compounds were tested against T1, WT TTR tetramer (assay: TTR tetramer dissociation kinetics by linked monomer unfolding in 6.5 M urea (far-UV CD), Example 2). Conditions: 3.6 μM TTR, 3.6 or 7.2 μM inhibitor, 168 h time-course.
In the case of `O=C(O)c1ccc(-c2ccccc2F)cc1` [Compound 16, 2′-Fluorobiphenyl-4-carboxylic acid], the “effect on TTR tetramer dissociation in 6.5 M urea” value (“effect” below) is reported as “affinity is insufficient to affect kinetic stabilization”. For `O=Cc1cccc(-c2cc(Cl)cc(Cl)c2)c1` [Compound 39, 3′,5′-Dichloro-3-formylbiphenyl], the “effect” value was “overall reduction in the extent of tetramer dissociation”. With `O=Cc1ccccc1-c1cc(Cl)cc(Cl)c1` [Compound 41, 3′,5′-Dichloro-2-formylbiphenyl] the “effect” value was “overall reduction in the extent of tetramer dissociation”. `OCc1ccc(-c2cc(Cl)cc(Cl)c2)cc1` [Compound 49, 3′,5′-Dichlorobiphenyl-4-yl-methanol] was tested, and the “effect” value was “overall reduction in the extent of tetramer dissociation”.

Reference: US7214696B2, “Compositions and methods for stabilizing transthyretin and inhibiting transthyretin misfolding” (The Scripps Research Institute, priority 2002, dated 2007)
